Experimental data from PMC7407272, “Induction of Lysosome Membrane Permeabilization as a Therapeutic Strategy to Target Pancreatic Cancer Stem Cells” (Cancers, 2020).

Experiments:
PDAC4 cultures = assay: Sphere formation assay; assay type: cell-based, human; details: 0.1 µg/mL GEM or Cpd 1 at 1.25 or 2.5 µM
Source text: (§1) Pancreatic CSC spheres were generated as previously described in ultra-low attachment plates (Corning) using CSC media: serum-free DMEM/F12 medium (1:1; #21331-020; Gibco, Waltham, MA, USA), supplemented with Pen/Strep (1:100; #1500-063; Gibco, Waltham, MA, USA), Fungizone (1:250; #15290-018; Gibco), L-Glutamine (1:100; #25030-024; Gibco, Waltham, MA, USA), B-27 (1:50; #17504-044; Gibco, Waltham, MA, USA) and basic fibroblast growth factor (FGF-b) (1:5000; Gibco, Waltham, MA, USA). All cell culture was carried out at 37 °C in a 5% CO2 humidified incubator. To quantify spheres of > 40 μm, 1 mL of sample volume was analyzed with a CASY® Cell Counter (Roche Applied Sciences, Mannheim, Germany). The CASY® Cell Counter measuring principle is based on a capillary particle counter with pulse area analysis, that permits the determination of cell count, cell concentration, cell volume (peak), and average cell diameter, specifically diameters of 40–80 μm, 80–120 μm and >120 μm.

PDAC2 cultures = assay: Sphere formation assay; assay type: cell-based, human; details: 0.1 µg/mL GEM or Cpd 1 at 1.25 or 2.5 µM
Source text: as §1

ZAP70 = target: T1, ZAP70 (Homo sapiens, UniProt P43403); assay: KINOMEscan; assay type: binding; details: read-out: % Ctrl
T1 construct: purchased DiscoveRx KINOMEscan

CDC2L1 = target: T2, CDC2L1 (Homo sapiens, UniProt P21127); assay: KINOMEscan; assay type: binding; details: read-out: % Ctrl
T2 construct: purchased DiscoveRx KINOMEscan

SRC = target: T3, SRC (Homo sapiens, UniProt P12931); assay: KINOMEscan; assay type: binding; details: read-out: % Ctrl
T3 construct: purchased DiscoveRx KINOMEscan

FAK = target: T4, FAK (Homo sapiens, UniProt Q05397); assay: KINOMEscan; assay type: binding; details: read-out: % Ctrl
T4 construct: purchased DiscoveRx KINOMEscan

PRKR = target: T5, PRKR (Homo sapiens, UniProt P19525); assay: KINOMEscan; assay type: binding; details: read-out: % Ctrl
T5 construct: purchased DiscoveRx KINOMEscan
T5 sequence (P19525 whole entry): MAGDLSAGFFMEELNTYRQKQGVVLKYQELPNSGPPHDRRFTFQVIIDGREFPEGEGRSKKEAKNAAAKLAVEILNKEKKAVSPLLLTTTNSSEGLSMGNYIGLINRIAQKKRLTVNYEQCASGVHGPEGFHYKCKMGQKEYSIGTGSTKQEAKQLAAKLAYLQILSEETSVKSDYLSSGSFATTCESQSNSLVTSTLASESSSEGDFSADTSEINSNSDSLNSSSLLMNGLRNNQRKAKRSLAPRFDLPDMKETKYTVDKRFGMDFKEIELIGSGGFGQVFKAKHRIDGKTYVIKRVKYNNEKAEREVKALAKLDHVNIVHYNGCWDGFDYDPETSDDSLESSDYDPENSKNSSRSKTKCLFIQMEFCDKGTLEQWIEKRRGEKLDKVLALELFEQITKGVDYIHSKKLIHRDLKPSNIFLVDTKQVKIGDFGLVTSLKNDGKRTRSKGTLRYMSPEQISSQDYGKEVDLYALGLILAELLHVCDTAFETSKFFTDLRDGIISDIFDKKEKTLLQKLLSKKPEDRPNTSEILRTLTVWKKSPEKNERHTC

CDK11 = target: T6, CDK11 (Homo sapiens, UniProt Q9BWU1); assay: KINOMEscan; assay type: binding; details: read-out: % Ctrl
T6 construct: purchased DiscoveRx KINOMEscan

LTK = target: T7, LTK (Homo sapiens, UniProt P29376); assay: KINOMEscan; assay type: binding; details: read-out: % Ctrl
T7 construct: purchased DiscoveRx KINOMEscan

PDGFRB = target: T8, PDGFRB (Homo sapiens, UniProt P09619); assay: KINOMEscan; assay type: binding; details: read-out: % Ctrl
T8 construct: purchased DiscoveRx KINOMEscan
T8 sequence (P09619 33-1106): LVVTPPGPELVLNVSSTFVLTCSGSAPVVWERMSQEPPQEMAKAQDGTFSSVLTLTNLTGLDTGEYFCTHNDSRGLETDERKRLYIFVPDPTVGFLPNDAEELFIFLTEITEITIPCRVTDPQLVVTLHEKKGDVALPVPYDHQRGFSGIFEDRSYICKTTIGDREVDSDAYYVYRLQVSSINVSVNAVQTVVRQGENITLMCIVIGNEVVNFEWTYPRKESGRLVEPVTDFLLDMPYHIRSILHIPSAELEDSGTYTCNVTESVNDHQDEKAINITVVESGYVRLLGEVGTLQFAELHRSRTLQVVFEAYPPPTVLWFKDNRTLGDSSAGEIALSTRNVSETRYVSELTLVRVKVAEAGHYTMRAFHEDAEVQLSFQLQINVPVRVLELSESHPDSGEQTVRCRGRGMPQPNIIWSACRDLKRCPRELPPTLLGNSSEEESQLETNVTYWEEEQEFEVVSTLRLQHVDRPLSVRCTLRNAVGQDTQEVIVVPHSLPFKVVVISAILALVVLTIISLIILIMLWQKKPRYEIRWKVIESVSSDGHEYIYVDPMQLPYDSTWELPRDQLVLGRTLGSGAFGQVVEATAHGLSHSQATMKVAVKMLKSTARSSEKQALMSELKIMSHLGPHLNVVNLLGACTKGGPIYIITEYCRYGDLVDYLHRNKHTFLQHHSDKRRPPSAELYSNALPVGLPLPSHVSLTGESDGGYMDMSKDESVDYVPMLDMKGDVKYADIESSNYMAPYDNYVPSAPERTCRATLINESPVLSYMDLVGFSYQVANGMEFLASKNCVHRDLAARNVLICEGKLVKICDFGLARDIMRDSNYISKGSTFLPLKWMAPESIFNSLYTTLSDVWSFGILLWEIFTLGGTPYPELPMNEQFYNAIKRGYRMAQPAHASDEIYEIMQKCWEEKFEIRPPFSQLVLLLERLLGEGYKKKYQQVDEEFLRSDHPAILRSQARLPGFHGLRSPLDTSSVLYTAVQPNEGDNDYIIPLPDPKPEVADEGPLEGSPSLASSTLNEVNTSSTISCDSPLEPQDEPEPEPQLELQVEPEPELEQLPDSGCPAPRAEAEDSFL

HUNK = target: T9, HUNK (Homo sapiens, UniProt P57058); assay: KINOMEscan; assay type: binding; details: read-out: % Ctrl
T9 construct: purchased DiscoveRx KINOMEscan

GSK3B = target: T10, GSK3B (Homo sapiens, UniProt P49841); assay: KINOMEscan; assay type: binding; details: read-out: % Ctrl
T10 construct: purchased DiscoveRx KINOMEscan

BMPR1A = target: T11, BMPR1A (Homo sapiens, UniProt P36894); assay: KINOMEscan; assay type: binding; details: read-out: % Ctrl
T11 construct: purchased DiscoveRx KINOMEscan

RAF1 = target: T12, RAF1 (Homo sapiens, UniProt P04049); assay: KINOMEscan; assay type: binding; details: read-out: % Ctrl
T12 construct: purchased DiscoveRx KINOMEscan
T12 sequence (P04049 whole entry): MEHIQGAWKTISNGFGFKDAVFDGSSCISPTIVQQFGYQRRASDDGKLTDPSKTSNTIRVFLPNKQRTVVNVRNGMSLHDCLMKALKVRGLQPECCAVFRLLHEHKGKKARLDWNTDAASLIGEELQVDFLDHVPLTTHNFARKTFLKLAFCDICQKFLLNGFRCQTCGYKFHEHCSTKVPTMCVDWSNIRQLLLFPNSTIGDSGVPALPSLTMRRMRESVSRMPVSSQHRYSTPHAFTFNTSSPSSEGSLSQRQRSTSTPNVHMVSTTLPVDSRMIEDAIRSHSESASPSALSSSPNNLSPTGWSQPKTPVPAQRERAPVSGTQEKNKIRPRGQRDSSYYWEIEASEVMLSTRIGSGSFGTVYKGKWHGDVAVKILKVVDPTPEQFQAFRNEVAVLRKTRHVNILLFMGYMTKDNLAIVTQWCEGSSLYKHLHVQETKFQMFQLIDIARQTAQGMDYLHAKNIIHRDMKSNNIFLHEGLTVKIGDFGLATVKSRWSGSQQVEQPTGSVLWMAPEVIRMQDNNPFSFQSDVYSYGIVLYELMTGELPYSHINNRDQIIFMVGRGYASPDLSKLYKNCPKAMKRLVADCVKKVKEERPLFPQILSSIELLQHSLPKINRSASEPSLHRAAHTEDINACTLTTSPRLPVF

RPS6KA5(KD1-N-t.) = target: T13, RPS6KA5(KD1-N-t.) (Homo sapiens, UniProt O75582); assay: KINOMEscan; assay type: binding; details: read-out: % Ctrl
T13 construct: RPS6KA5(KD1-N-t.); purchased DiscoveRx KINOMEscan

ACVR1B = target: T14, ACVR1B (Homo sapiens, UniProt P36896); assay: KINOMEscan; assay type: binding; details: read-out: % Ctrl
T14 construct: purchased DiscoveRx KINOMEscan
T14 sequence (P36896 24-505): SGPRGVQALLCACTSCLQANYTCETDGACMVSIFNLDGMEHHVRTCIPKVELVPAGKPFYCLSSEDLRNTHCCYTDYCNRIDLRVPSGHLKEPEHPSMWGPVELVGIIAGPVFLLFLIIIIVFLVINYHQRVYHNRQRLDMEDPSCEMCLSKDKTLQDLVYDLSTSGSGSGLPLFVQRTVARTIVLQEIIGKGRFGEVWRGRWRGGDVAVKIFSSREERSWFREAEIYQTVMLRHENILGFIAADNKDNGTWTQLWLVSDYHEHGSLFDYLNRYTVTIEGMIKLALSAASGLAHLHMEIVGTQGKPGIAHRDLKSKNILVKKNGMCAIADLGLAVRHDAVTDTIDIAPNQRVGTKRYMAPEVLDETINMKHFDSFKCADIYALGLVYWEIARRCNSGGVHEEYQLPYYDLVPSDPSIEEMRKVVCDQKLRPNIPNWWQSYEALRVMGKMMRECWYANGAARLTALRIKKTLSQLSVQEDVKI

RSK1(KD2-C-t.) = target: T15, RSK1(KD2-C-t.) (Homo sapiens, UniProt Q15418); assay: KINOMEscan; assay type: binding; details: read-out: % Ctrl
T15 construct: RSK1(KD2-C-t.); purchased DiscoveRx KINOMEscan
T15 sequence (Q15418 392-735 limits assumed): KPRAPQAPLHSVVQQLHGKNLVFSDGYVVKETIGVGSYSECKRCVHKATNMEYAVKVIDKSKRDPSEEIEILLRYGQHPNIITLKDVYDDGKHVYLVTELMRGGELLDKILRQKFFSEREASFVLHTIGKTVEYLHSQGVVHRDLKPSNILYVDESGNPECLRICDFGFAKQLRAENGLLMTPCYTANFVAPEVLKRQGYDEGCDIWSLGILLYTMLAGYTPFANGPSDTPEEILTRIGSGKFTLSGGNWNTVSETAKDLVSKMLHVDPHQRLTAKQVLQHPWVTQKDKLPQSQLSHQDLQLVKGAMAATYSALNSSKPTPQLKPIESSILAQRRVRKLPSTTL

SYK = target: T16, SYK (Homo sapiens, UniProt P43405); assay: KINOMEscan; assay type: binding; details: read-out: % Ctrl
T16 construct: purchased DiscoveRx KINOMEscan

CAMK1 = target: T17, CAMK1 (Homo sapiens, UniProt Q14012); assay: KINOMEscan; assay type: binding; details: read-out: % Ctrl
T17 construct: purchased DiscoveRx KINOMEscan
T17 sequence (Q14012 whole entry): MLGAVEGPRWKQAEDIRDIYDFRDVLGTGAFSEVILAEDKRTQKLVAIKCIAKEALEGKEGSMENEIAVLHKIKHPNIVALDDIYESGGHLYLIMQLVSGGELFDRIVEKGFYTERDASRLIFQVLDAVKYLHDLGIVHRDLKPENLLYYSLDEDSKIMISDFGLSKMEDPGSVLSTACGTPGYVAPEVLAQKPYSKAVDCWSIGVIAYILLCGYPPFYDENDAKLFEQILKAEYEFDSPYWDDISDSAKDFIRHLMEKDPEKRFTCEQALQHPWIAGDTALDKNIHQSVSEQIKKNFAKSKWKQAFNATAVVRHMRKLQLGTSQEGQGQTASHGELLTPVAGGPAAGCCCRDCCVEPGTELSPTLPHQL

ABL1(M351T)-P = target: T18, ABL1(M351T)-P (Homo sapiens, UniProt P00519, M351T); assay: KINOMEscan; assay type: binding; details: read-out: % Ctrl
T18 construct: purchased DiscoveRx KINOMEscan

PCTK2 = target: T19, PCTK2 (Homo sapiens, UniProt Q00537); assay: KINOMEscan; assay type: binding; details: read-out: % Ctrl
T19 construct: purchased DiscoveRx KINOMEscan

MAP3K1 = target: T20, MAP3K1 (Homo sapiens, UniProt Q13233); assay: KINOMEscan; assay type: binding; details: read-out: % Ctrl
T20 construct: purchased DiscoveRx KINOMEscan
T20 sequence (Q13233 whole entry): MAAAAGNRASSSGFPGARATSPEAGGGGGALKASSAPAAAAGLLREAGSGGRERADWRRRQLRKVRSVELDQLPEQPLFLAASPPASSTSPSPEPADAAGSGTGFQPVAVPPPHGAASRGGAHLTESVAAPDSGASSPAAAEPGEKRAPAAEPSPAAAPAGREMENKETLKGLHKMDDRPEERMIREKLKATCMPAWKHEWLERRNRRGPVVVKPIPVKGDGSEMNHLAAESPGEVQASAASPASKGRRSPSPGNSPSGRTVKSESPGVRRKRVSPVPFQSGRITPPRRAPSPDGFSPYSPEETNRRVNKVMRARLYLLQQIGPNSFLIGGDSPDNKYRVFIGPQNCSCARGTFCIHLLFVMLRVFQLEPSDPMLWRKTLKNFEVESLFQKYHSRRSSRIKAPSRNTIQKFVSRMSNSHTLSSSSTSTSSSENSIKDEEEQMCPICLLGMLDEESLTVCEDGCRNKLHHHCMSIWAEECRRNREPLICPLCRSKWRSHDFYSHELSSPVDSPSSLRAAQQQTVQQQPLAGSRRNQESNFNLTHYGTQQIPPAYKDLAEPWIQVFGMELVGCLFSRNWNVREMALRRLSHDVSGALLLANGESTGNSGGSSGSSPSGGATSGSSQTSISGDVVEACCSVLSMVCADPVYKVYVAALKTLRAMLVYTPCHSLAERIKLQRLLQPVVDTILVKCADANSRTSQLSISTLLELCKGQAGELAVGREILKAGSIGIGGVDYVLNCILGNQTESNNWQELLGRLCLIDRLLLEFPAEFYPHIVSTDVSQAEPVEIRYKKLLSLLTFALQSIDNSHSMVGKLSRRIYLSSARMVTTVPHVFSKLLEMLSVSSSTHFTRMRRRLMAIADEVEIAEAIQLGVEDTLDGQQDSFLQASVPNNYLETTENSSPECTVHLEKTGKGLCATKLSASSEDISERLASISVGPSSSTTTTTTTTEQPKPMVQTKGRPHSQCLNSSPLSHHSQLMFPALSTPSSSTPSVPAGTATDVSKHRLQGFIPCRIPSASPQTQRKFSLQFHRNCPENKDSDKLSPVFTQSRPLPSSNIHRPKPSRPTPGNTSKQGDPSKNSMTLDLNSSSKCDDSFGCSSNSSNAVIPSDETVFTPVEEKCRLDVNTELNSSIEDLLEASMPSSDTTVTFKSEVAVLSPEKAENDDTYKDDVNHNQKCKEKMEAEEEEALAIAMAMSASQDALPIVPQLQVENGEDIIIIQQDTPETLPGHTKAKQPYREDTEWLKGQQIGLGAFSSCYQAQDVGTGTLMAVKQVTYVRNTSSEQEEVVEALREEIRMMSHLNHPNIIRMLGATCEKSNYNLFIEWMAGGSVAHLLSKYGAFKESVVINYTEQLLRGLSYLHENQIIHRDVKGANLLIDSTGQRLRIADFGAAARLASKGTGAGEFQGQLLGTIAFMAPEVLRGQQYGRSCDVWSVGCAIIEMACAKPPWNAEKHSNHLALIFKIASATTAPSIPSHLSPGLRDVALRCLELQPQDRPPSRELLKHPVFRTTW

[1] = system: implanted invasive glioblastoma spheroids or gliobastomas PDXs; design: method as in PMID 28270132; details: 100 mg/kg; cited from earlier work

With COc1nc2ccc(NCC3CCN(C)CC3)nn2c1C(=O)Nc1cccc(OC(F)(F)F)c1 [Cpd 1] the sphere-forming capacity (PDAC4 cultures) was “decreased sphere forming capacity” and the sphere-forming capacity (PDAC2 cultures) was “decreased sphere forming capacity”.
CN1CCC(CNc2ccc3ncc(C(=O)Nc4cccc(OC(F)(F)F)c4)n3n2)CC1 [Cpd 2] showed a remaining binding at 1 µM (ZAP70) of 95%, a remaining binding at 1 µM (CDC2L1) of 100% and a remaining binding at 1 µM (SRC) of 99%. The remaining binding at 1 µM (FAK) was 100%, the remaining binding at 1 µM (PRKR) was 83% and the remaining binding at 1 µM (CDK11) was 97%. For the same molecule, the remaining binding at 1 µM (LTK) was 93%, the remaining binding at 1 µM (PDGFRB) was 92% and the remaining binding at 1 µM (HUNK) was 100%. It also gave a remaining binding at 1 µM (GSK3B) of 97%, a remaining binding at 1 µM (BMPR1A) of 97% and a remaining binding at 1 µM (RAF1) of 100%. For the same molecule, the remaining binding at 1 µM (RPS6KA5(KD1-N-t.)) was 100%, the remaining binding at 1 µM (ACVR1B) was 97% and the remaining binding at 1 µM (RSK1(KD2-C-t.)) was 89%. For the same molecule, the remaining binding at 1 µM (SYK) was 94%, the remaining binding at 1 µM (CAMK1) was 98% and the remaining binding at 1 µM (ABL1(M351T)-P) was 100%. It also gave a remaining binding at 1 µM (PCTK2) of 100% and a remaining binding at 1 µM (MAP3K1) of 100%.
In the case of Fc1ccc(-n2cc(CCCCN3CCC4(CC3)OCc3ccccc34)c3ccccc32)cc1 [siramesine], the efficacy in vivo [1] is listed as “ineffective in vivo”.
